Assay results reported in EPA's ToxValDB 9.5 (doi:10.2903/j.efsa.2011.1969).
Converted amounts (≈) assume the structure as drawn.

Experiments:
Apis mellifera = settings: acute; duration: 48 hours; oral; unspecified; mortality
Coturnix japonica = settings: reproduction developmental
Daphnia magna = settings: chronic/long-term; duration: 21 days; reproduction
Tagia sp. = settings: acute; duration: 14 days; mortality
Anas platyrhynchos = settings: short-term; oral; feed; mortality
Folsomia candida = settings: chronic/long-term; duration: 28 days
Colinus virginianus = settings: acute; oral; mortality
Bibionidae = settings: chronic/long-term; duration: 27 days
Typhlodromus pyri = assay: LR50; higher = less toxic; settings: not reported; mortality
Aphidius rhopalosiphi = assay: LR50; higher = less toxic; settings: not reported; mortality

Compound: CCNc1nc(Cl)nc(NC(C)(C)C)n1 [Terbutylazine]
- LD50 (Apis mellifera): > 22.6 µg/piece
- NOEL (Coturnix japonica): 13.8 mg/kg-day
- NOEC (Daphnia magna): 0.019 mg/L
- LC50 (Tagia sp.): > 283 mg/kg
- LC50 (Anas platyrhynchos): > 395 mg/kg-day
- LC50 (Oncorhynchus mykiss; acute, duration: 96 hours, mortality): 2.2 µg/mL (≈ 9.58 µM)
- NOEC (Oncorhynchus mykiss; chronic/long-term, duration: 90 days, time to swim up): 0.09 mg/L
- NOEC (Folsomia candida): 42.2 mg/kg
- LD50 (Colinus virginianus): 1240 mg/kg-day
- NOEC (Bibionidae): 0.5 mg/L
- LD50 (Rattus norvegicus; acute, oral, mortality): < 1590 mg/kg
- NOAEL (Rattus norvegicus; chronic): 3.3 mg/kg-day
- LR50 (Typhlodromus pyri): > 750 g/ha
- LR50 (Aphidius rhopalosiphi): > 750 g/ha
